According to patent US6582910B1, “WbpP and method for assay of WbpP” (priority 1999, dated 2003):
Entries after “also recorded” stand apart in the source; their conditions may differ.

How the values were obtained:
[1] = biological target: T1, WbpP (Pseudomonas aeruginosa, UniProt Q8KN66); assay: Requirement for NAD+ or divalent cations for enzymatic activity (capillary electrophoresis); assay type: biochemical; details: NAD+ 1 mM, divalent cations 4 mM, acetylated or non-acetylated substrates
T1 construct: made in house; host or cells: E. coli BL21(DE3)pLysS, pET23 derivative
Protocol: Study of the Requirement for NAD+ or divalent cations for enzymatic activity—To access the requirement for NAD+ or divalent cations for the enzymatic activity of WbpP, reactions were carried out with or without NAD+ (1 mM final concentration), and with or without divalent cations (4 mM final concentration of MnCl2, MgCl2, or CaCl2) and monitored by capillary electrophoresis as described above.

[2] = biological target: T1, WbpP; assay: DMAB spectrophotometric assay of epimerisation of UDP-GlcNAc and UDP-GalNAc; assay type: biochemical; details: for Specific activity: 0.75 mM substrate
Protocol: Determination of the enzymatic conversion of UDP-GlcNAc and UDP-GalNAc using p-dimethylaminobenzaldehyde (DMAB)—Reactions were performed with a total reaction volume of 35 μl at 37° C. in 20 mM Tris pH 8 unless stated otherwise. The specific amount of enzyme used, substrate concentrations, and incubation time are indicated in the legend of each figure. The reactions were stopped by acid hydrolysis of the UDP moiety of the substrate. For this purpose, the samples were acidified to pH 2 by addition of 7 μl of HCl 0.1 N, boiled for 6 min, and neutralised by addition of 7 μl of NaOH 0.1 N. For the spectrophotometric quantification of GalNAc and GlcNAc, the reagent DMAB was prepared at 10% in glacial acetic acid/HCl 9/1 v/v, and further diluted 1/10 in glacial acetic acid before use (Reissig et al. (1955)). For the assay itself, 100 μl of 0.2 M sodium tetraborate pH 9.1 were added to 50 μl of quenched and neutralised enzymatic reactions and boiled immediately for 3 min. 40 μl of this mixture were transferred to a microtitration plate and 200 μl of DMAB reagent were added. After incubation for 30 min at 37° C., the OD595 nm was recorded using a microplate reader. For practical reasons, the DMAB assay was carried out using a wavelength setting of 595 nm in the spectrophotometer. […] The assay was done in duplicate for each reaction tested. Standard curves were prepared using UDP-GlcNAc and UDP-GalNAc that were subjected to acid hydrolysis in the same conditions as described above.
FIG. 3: Study of the epimerisation of UDP-GlcNAc and UDP-GalNAc by WbpP using the DMAB assay. Panel A, standard curves obtained with each compound separately. Open circles, UDP-GlcNAc; Open squares, UDP-GalNAc. Panel B, comparison of the experimental data (closed triangles) obtained for mixtures of UDP-GalNAc and UDP-GlcNAc of different proportions (constant total sugar-nucleotide concentration of 0.75 mM) and the theoretical data (open triangles) calculated from the standard curves from panel 3A. 3C: Activity of WbpP as a function of the amount of enzyme added. The reactions were performed with […] substrate in a total volume of 35 μl for 8 min at 37° C. Closed circles, UDP-GlcNAc; Closed squares, UDP-GalNAc.
FIG. 6: Determination of the optimum pH and temperature for the epimerisation of UDP-GlcNAc by WbpP using the DMAB assay: For the pH study (panel A), the reactions were performed with 5 mM UDP-GlcNAc and 39 ng of enzyme in a total volume of 44 μl and incubated for 10 min at 37° C. The pH between 5 and 7 were obtained with 50 mM sodium acetate buffer (open circles), whereas pH 7 to 10 were obtained with 50 mM Tris-HCl (closed circles). For the temperature study (panel B), the reactions were performed in 50 mM Tris-HCl pH 8 with 5 mM UDP-GlcNAc and 0.78 ng of enzyme in a total volume of 44 μl and 30 min incubation. For both panels, two enzymatic reactions were set up in each experimental condition and two determinations of residual UDP-GlcNAc were made per reaction. Each point represents the average of the four determinations.

[3] = biological target: T1, WbpP; assay: Capillary electrophoresis, kinetic parameters for UDP-GlcNAc and UDP-GalNAc; assay type: biochemical; details: acetylated substrates; for kcal: CE; for Km / Vmax: initial rates, 3 min, 37° C., 20 mM Tris pH 8, CE
Protocol: Determination of the kinetic parameters for UDP-GlcNAc and UDP-GalNAc by capillary electrophoresis—Reactions were performed at 37° C. in 20 mM Tris pH 8 with a total reaction volume of 44 μl. The amount of purified enzyme added was 234 ng and 117 ng for reaction with UDP-GlcNAc and UDP-GalNAc, respectively. After incubation at 37° C. for the required amount of time, the reactions were quenched by boiling the sample for 6 min. Time course studies were performed with final sugar-nucleotide concentrations of 0.075 and 1.75 mM. Samples were quenched after 0, 2, 4, 6, 8, 10 and 15 min. […] Capillary electrophoresis (CE) analysis was performed using a P/ACE 5000 system (Beckman, Fullerton, Calif.) with UV detection. The running buffer was 25 mM sodium tetraborate pH 9.4. The capillary was bare silica 75 μm×57 cm, with a detector at 50 cm. The capillary was conditioned before each run by washing with 0.2 M NaOH for 2 min, water for 2 min, and running buffer for 2 min. Samples were introduced by pressure injection for 4 s and the separation was performed at 22 kV. Peak integration was done using the Beckman P/ACE Station software. The calculation of kinetic parameters was done using the PRISM program.
FIG. 4: Capillary electrophoresis analysis of the epimerisation of UDP-GlcNAc and UDP-GalNAc by WbpP at equilibrium. The reactions were performed in a total volume of 35 μl with 1.5 mM substrate and 17 μg of enzyme. They were incubated at 37° C. for 2 h. 1, UDP-GalNAc alone; 2, UDP-GlcNAc alone; 3, UDP-GlaNAc+WbpP; 4, UDP-GlcNAc+WbpP.
FIG. 5: Time Course of epimerisation of UDP-GlcNAc and UDP-GalNAc by WbpP as measured by capillary electrophoresis. Reactions were performed at 37° C. in 20 mM Tris pH 8 with a total reaction volume of 44 μl. The amount of purified enzyme added was 234 ng and 117 ng for reaction with UDP-GlcNAc and UDP-GalNAc, respectively. Closed circles, UDP-GlcNAc 0.075 mM; Closed squares, UDP-GalNAc 0.075 mM; Open circles, UDP-GlcNAc 1.75 mM; Open squares, UDP-GalNAc 1.75 mM.

[4] = Storage stability of purified WbpP; assay type: physicochemical; details: −20° C. in 25% glycerol or 20% adonitol in Tris pH 8
Protocol: Purification of WbpP by chromatography—Cells sedimented from 100 ml induced culture were resuspended in 10 ml of buffer A (5 mM imidazole, 20 mM Tris pH 8, 0.1 M NaCl). The cells were briefly sonicated (macrotip, sonicator XL2020 Heat systems Incorporated, power set to 4, 2 min total, 5 sec on, 5 sec off) on ice. Cell debris were removed by centrifugation at 13000×g for 15 min at 4° C. and the supernatant was applied to a 3 ml fast flow cielating sepharose column (Amersham-Pharmacia, Quebec) previously loaded with nickel sulfate (30 ml of 0.1 M) and equilibrated with 5 column volumes (CV) of buffer A. Loading of the sample as well as all washing and elution steps were done by gravity. After loading of the sample, the column was washed with 10 CV of buffer A and 5 CV of buffer B (20 mM imidazole, 20 mM Tris pH 8, 0.1M NaCl). Elution was carried out with 3 CV of buffer C (1 M imidazole, 20 mM Tris pH 8, 0.5 M NaCl 0.1 M). Fractions were collected every 1 CV. […] This fraction was subjected to further purification by anion exchange chromatography after dilution 1/30 in 50 mM Tris pH 8. Half of it was loaded onto a 1 ml column of Q Sepharose fast flow (Pharmacia). The column was washed with 30 CV of Tris buffer and the protein was eluted with 3 CV of 50 mM Tris pH 8, 0.5 M NaCl. […] Protein quantitation was done using the BCA reagent (Pierce, Rockford, Ill.).

[5] = biological target: the molecule itself; assay: gel filtration on G100 Sephadex, self-association (homodimer)
[6] = fraction: anion exchange (purified WbpP)

[Ca+2].[Cl-].[Cl-] [Ca^2+]
Necessity of addition to the reaction mixture for the C4 epimerase activity [1]: not necessary; also recorded: active without requiring addition

[Cl-].[Cl-].[Mg+2] [Mg^2+]
Necessity of addition to the reaction mixture for the C4 epimerase activity [1]: active without requiring addition | Necessity of addition to the reaction mixture for the C4 epimerase activity ([1]; listed as Mg2^1): not necessary

[Cl][Mn][Cl] [Mn^2+]
Necessity of addition to the reaction mixture for the C4 epimerase activity [1]: not necessary; also recorded: active without requiring addition

NC(=O)c1ccc[n+]([C@@H]2O[C@H](COP(=O)([O-])OP(=O)(O)OC[C@H]3O[C@@H](n4cnc5c(N)ncnc54)[C@H](O)[C@@H]3O)[C@@H](O)[C@H]2O)c1 [NAD^+]
Necessity of addition to the reaction mixture for the C4 epimerase activity [1]: active without requiring addition | Necessity of addition to the reaction mixture for the C4 epimerase activity ([1]; listed as NAD^1): not necessary

CC(=O)N[C@H]1[C@@H](OP(=O)(O)OP(=O)(O)OC[C@H]2O[C@@H](n3ccc(=O)[nH]c3=O)[C@H](O)[C@@H]2O)O[C@H](CO)[C@H](O)[C@@H]1O [UDP-GalNAc, UDP-N-acetylgalactosamine]
Maximum substrate conversion (at equilibrium) ([2]; acetylated substrates, epimerisation by WbpP): ~70% | Specific activity ([2]; fraction: IMAC): 4.6 U/mg | Specific activity [2, 6]: 5.6 U/mg | Specific activity ([2]; fraction: soluble fraction): 3.4 U/mg | Specific activity ([2]; fraction: total cell extract): 2.6 U/mg | Specific activity of purified WbpP [2]: 5.6 Units/mg | kcal [3]: 271 ± 7 min⁻¹ | Km [3]: 197 µM | Vmax [3]: 840 ± 25 pmol/min

CC(=O)N[C@H]1[C@@H](OP(=O)(O)OP(=O)(O)OC[C@H]2O[C@@H](n3ccc(=O)[nH]c3=O)[C@H](O)[C@@H]2O)O[C@H](CO)[C@@H](O)[C@@H]1O [UDP-GlcNAc, UDP-N-acetylglucosamine]
Specific activity ([2]; fraction: IMAC): 2.0 U/mg | Specific activity [2, 6]: 2.3 U/mg | Specific activity ([2]; fraction: soluble fraction): 1.1 U/mg | Specific activity ([2]; fraction: total cell extract): 0.2 U/mg | Specific activity of purified WbpP [2]: 2.3 Units/mg | kcal [3]: 120 ± 3 min⁻¹ | Km [3]: 224 µM | Vmax [3]: 741 ± 22 pmol/min

B1: WbpPO6 carrying a N-terminal hexahistidine tag (enzyme)
chain: MHHHHHHGSMGMMSRYEELRKELPAQPKVWLITGVAGFIGSNLLETLLKLDQKVVGLDNFATGHQRNLDEVRSLVSEKQWSNFKFIQGDIRNLDDCNNACAGVDYVLHQAALGSVPRSINDPITSNATNIDGFLNMLIAARDAKVQSFTYAASSSTYGDHPGLPKVEDTIGKPLSPYAVTKYVNELYADVFSRCYGFSTIGLRYFNVFGRRQDPNGAYAAVIPKWTSSMIQGDDVYINGDGETSRDFCYIENTVQANLLAATAGLDARNQVYNIAVGGRTSLNQLFFALRDGLAENGVSYHREPVYRDFREGDVRHSLADISKAAKLLGYAPKYDVSAGVALAMPWYIMFLK
notes: Expressed in E. coli BL21(DE3)pLysS from a pET23 derivative and purified by nickel chelation and anion exchange; In the Western immunoblot it stood as the SDS-denatured single chain; this is not a protein partner; also called WbpP epimerase; UDP-GlcNAc C4 epimerase
pH with significant activity ([2]; epimerisation of UDP-GlcNAc): > 6.5 | Activity after storage [4]: without any significant loss of activity | binding result [5]: binds
